Data published in US4771043A, “Steroidic aromatase inhibitors” (Farmitalia Carlo Erba, S.p.A., priority 1985, dated 1988).

Experiments:
[1] = tested on: rat ovarian aromatase; experiment: Inhibition of rat ovarian aromatase in vivo (PMSG-treated adult female rats, oral dosing, ovarian microsomes assayed 24 hours later); settings: for % AROMATASE INHIBITION: rat ovarian microsomes 24 hours after dosing, versus vehicle treated group
Experimental: (§1) Aromatase inhibition by the compounds of the present invention was determined both in vitro (human placental aromatase), and in vivo (ovarian aromatase activity) in rats.
adult female rats were twice treated subcutaneously with 100 I.U. pregnant mares' serum gonadotropin (PMSG) at 4 days' interval, in order to increase ovarian aromatase activity, according to Brodie procedure [A. M. H. Brodie et al, Steroids 38, 693, 1981]. Three days after the second PMSG treatment, groups of 6 animals each were given orally the vehicle (0.5% methocel) or the inhibitor at the dose reported in the following table. Animals were killed 24 hours later, microsomes were isolated from ovaries and their aromatase activity determined using a method similar to that described above for the evaluation of the in vitro activity. The incubation were carried out for 30 minutes in 1 ml incubation volume containing 0.1 mg of microsomal proteins, 100 nM 4-[^3 H]androstenedione and 100 μM NADPH.
% inhibition of control aromatase activity was calculated.

[2] = tested on: human placental aromatase; experiment: Aromatase inhibition in vitro (human placental microsomes, 3H2O release from 4-[1β,2β-3H]androstene-3,17-dione); type: biochemical; settings: comparison with e.g. 4-OH-A
Experimental: as §1
Aromatase inhibition in vitro was determined as follows: the enzyme system was isolated from the microsomal fraction of human placental tissue according to standard procedure. The assay of Thompson and Siiteri [E. A. Thompson and P. K. Siiteri, J. Biol. Chem. 249, 5364, 1974] which determines the rate of aromatization as measured by the liberation of ^3 H2 O from 4-[1β,2β-^3 H]androstene-3,17-dione was used. All incubations were carried out in a shaking water bath at 37° C. in air in 10 mM potassium phosphate buffer, pH 7.5, which contained 100 mM KCl, 1 mM EDTA and 1 mM dithiothreitol. The experiments were carried out in 1 ml incubation volume containing 50 nM 4-[^3 H]androstenedione, various concentrations of the inhibitors, 100 μM NADPH and 0.05 mg of microsomal proteins. After 15 minutes of incubation the reaction was stopped by the addition of chloroform (5 ml). After centrifugation at 1500×g for 5 minutes, aliquots (0.5 ml) were removed from the water phase for determination of ^3 H2 O formed. […] Aromatase inhibition in vivo was determined in rats by the following procedure: […]

[3] = women, R. C. Coombes et al., Lancet II, 1237, 1984; cited from earlier work

| Structure (SMILES) | % AROMATASE INHIBITION ([1]; 10 mg/kg p.o.) | effectiveness in vivo by oral route (in words) ([1]; 10 mg/kg) | % AROMATASE INHIBITION ([1]; 30 mg/kg p.o.) | in vitro aromatase inhibiting potency compared with reference compounds (in words) [2] | % AROMATASE INHIBITION ([1]; 100 mg/kg p.o.) | effectiveness in vivo by oral route (in words) ([1]; 100 mg/kg) | conjugation after oral administration (in words) [3] |
| --- | --- | --- | --- | --- | --- | --- | --- |
| C[C@]12C=CC(=O)C=C1[C@@H](N=[N+]=[N-])C[C@@H]1[C@@H]2CC[C@]2(C)C(=O)CC[C@@H]12 [FCE 24403, 6α-azido androsta-1,4-diene-3,17-dione] | 81% | very effective | 89% | less potent in vitro than, e.g., 4-OH-A | – | – | – |
| C[C@]12C=CC(=O)C=C1CC[C@@H]1[C@@H]2CC[C@]2(C)OC(=O)CC[C@@H]12 [testolactone, D-homo-17a-oxaandrosta-1,4-diene-3,17-dione, reference compound] | – | – | 2% | – | – | – | – |
| C[C@]12CCC(=O)C(O)=C1CC[C@@H]1[C@@H]2CC[C@]2(C)C(=O)CC[C@@H]12 [4-OH-A, 4-hydroxyandrosta-4-ene-3,17-dione, reference compound] | – | – | 7% | – | 21% | ineffective | extensively conjugated after oral administration |
| C[C@]12C=CC(=O)C=C1[C@@H](N)C[C@@H]1[C@@H]2CC[C@]2(C)C(=O)CC[C@@H]12 [FCE 24968, 6α-aminoandrosta-1,4-diene-3,17-dione] | 53% | very effective | 71% | less potent in vitro than, e.g., 4-OH-A | – | – | – |
| C[C@]12C=CC(=O)C=C1CC[C@@H]1[C@@H]2CC[C@]2(C)C(=O)CC[C@@H]12 [androsta-1,4-diene-3,17-dione, reference compound] | – | – | 37% | – | – | – | – |
